This data set has as its system GENE-TOX genotoxicity assays, various organisms and cells. Kind of data set: GENE-TOX mutagenicity studies. The conditions noted are these: for call: Assay Type: In vivo carcinogenicity studies.
[1] abbreviates: Species/Cell Type: Fischer rat embryo (RLV/1706) cells, Assay Type: Cell transformation, viral enhanced, Assay Code: CTR+, Evaluation Type: Evaluation A (Pre-1980).
Where [2] appears, read: Species/Cell Type: Human diploid fibroblasts, Assay Type: Unscheduled DNA synthesis (UDS) in vitro, DNA effects, Assay Code: UDH-, Evaluation Type: Evaluation A (Pre-1980).
Setting [3] is: Species/Cell Type: Nonhuman, Assay Type: Sister-chromatid exchange (SCE) in vitro, Assay Code: SC2+, Evaluation Type: Evaluation B (Post-1980).
The mark [4] stands for this setting: Species/Cell Type: Drosophila melanogaster, Assay Type: Sex-linked recessive lethal gene mutation, Assay Code: SRL-, Evaluation Type: Evaluation A (Pre-1980).
Where [5] appears, read: Species/Cell Type: Salmonella typhimurium (one or more of the five standard strains: TA98, TA100, TA1535, TA1537, and TA1538), Assay Type: Histidine reverse gene mutation, Ames assay, Assay Code: SAL-, Evaluation Type: Evaluation A (Pre-1980).
[6] abbreviates: Species/Cell Type: Salmonella typhimurium (one or more of the five standard strains: TA98, TA100, TA1535, TA1537, and TA1538), Assay Type: Histidine reverse gene mutation, Ames assay, Assay Code: SAL+, Evaluation Type: Evaluation A (Pre-1980).

Active and inactive are the calls of the source. How the calls were made is not given here.

In the case of `CN(C)c1ccc(Cc2ccc(N(C)C)cc2)cc1`, the mutagenic call reads like this: (Species/Cell Type: Escherichia coli polA (W3119 vs P3478), Assay Type: Rec-assay, DNA effects (bacterial DNA repair), Assay Code: RE1+, Evaluation Type: Evaluation A (Pre-1980)) “active; positive”; under setting [1], “active; positive”; under setting [2], “inactive; negative”; under setting [3], “active; positive”; (Species/Cell Type: Saccharomyces cerevisiae, Assay Type: Mitotic recombination or gene conversion, Assay Code: YEH-, Evaluation Type: Evaluation A (Pre-1980)) “inactive; negative”; (Species/Cell Type: Salmonella typhimurium, Assay Type: Forward and reverse gene mutation, host-mediated assay, Assay Code: HMA+, Evaluation Type: Evaluation A (Pre-1980)) “active; positive”. Further, for the setting “Species/Cell Type: Syrian hamster embryo (SHE) cells, Assay Type: Cell transformation, clonal assay, Assay Code: CTC+, Evaluation Type: Evaluation A (Pre-1980)”, the mutagenic call was “active; positive”. Also, the call (Species/Cell Type: Nonhuman, Assay Code: CCG+, Evaluation Type: Evaluation A (Pre-1980)) is “active; positive”.

In the case of `CN(N=O)C(=O)Nc1ccc(F)cc1`, the mutagenic call (Species/Cell Type: Nonhuman, Assay Type: Sister-chromatid exchange (SCE) in vitro, Assay Code: SC2+D, Dose Response: With dose response, Evaluation Type: Evaluation B (Post-1980)) was “active; positive”.

Consider `O=C1CN=C(c2ccccc2Cl)c2cc([N+](=O)[O-])ccc2N1`, for which the mutagenic call was “inactive; negative” (Species/Cell Type: Salmonella typhimurium, Assay Type: Forward and reverse gene mutation, body fluid assay, Assay Code: BFU-, Evaluation Type: Evaluation A (Pre-1980)); “inactive; negative” (Species/Cell Type: Salmonella typhimurium, Assay Type: Forward and reverse gene mutation, host-mediated assay, Assay Code: HMA-, Evaluation Type: Evaluation A (Pre-1980)).

Consider `O=C(O)CC[N+](=O)[O-]`, for which the mutagenic call under setting [1] was “active; positive”. Also, the call (Species/Cell Type: Nonhuman, Assay Code: CCG-L, Evaluation Type: Evaluation A (Pre-1980)) was “inactive; negative”.

Turning to `CCCN(CCC)c1c([N+](=O)[O-])cc(C(F)(F)F)cc1[N+](=O)[O-]`, the mutagenic call by setting is: (Species/Cell Type: Bacillus subtilis (H17 vs M45), Assay Type: Rec-assay, spot test, DNA effects (bacterial DNA repair), Assay Code: REWT, Evaluation Type: Evaluation A (Pre-1980)) “no conclusion”; under setting [4], “inactive; negative”; (Species/Cell Type: Escherichia coli WP2 UVRA, Assay Type: Tryptophan reverse gene mutation, Assay Code: WPU-*, Activation: With metabolic activation, Evaluation Type: Evaluation A (Pre-1980)) “inactive; negative”; (Species/Cell Type: Escherichia coli polA (W3119 vs P3478), Assay Type: Rec-assay, DNA effects (bacterial DNA repair), Assay Code: RE1T, Evaluation Type: Evaluation A (Pre-1980)) “no conclusion”; under setting [2], “inactive; negative”; (Species/Cell Type: Neurospora crassa, Assay Type: Aneuploidy, chromosome aberrations, Assay Code: NEN+, Evaluation Type: Evaluation A (Pre-1980)) “active; positive”. Moreover, the mutagenic call reads like this: under setting [3], “active; positive”; (Species/Cell Type: Saccharomyces cerevisiae, Assay Type: Mitotic recombination or gene conversion, Assay Code: YEH+/-*, Activation: With metabolic activation, Evaluation Type: Evaluation A (Pre-1980)) “inactive; positive without activation, negative with activation”; under setting [5], “inactive; negative”; (Species/Cell Type: Vicia faba, Assay Type: Chromosome aberrations, Assay Code: VIC+, Evaluation Type: Evaluation A (Pre-1980)) “active; positive”. Also, the call (Species/Cell Type: Nonhuman, Assay Code: CCG+L, Evaluation Type: Evaluation A (Pre-1980)) was “active; positive”.

On to `NC(=O)N(CCC[C@H](N)C(=O)O)N=O`, for which, under setting [6], the mutagenic call was “active; positive”.

For `[N-]=[N+]=CC(=O)CCCCC(=O)C=[N+]=[N-]`, the mutagenic call (Species/Cell Type: Allium cepa, Assay Type: Chromosome aberrations, Assay Code: ALC-, Evaluation Type: Evaluation A (Pre-1980)) is “inactive; negative”; the mutagenic call (Species/Cell Type: Aspergillus nidulans, Assay Type: Reverse gene mutation, Assay Code: ASRT, Evaluation Type: Evaluation A (Pre-1980)) is recorded as “no conclusion”; the mutagenic call (Species/Cell Type: Hordeum vulgare (barley), Assay Type: Gene mutation, Assay Code: HOM+, Evaluation Type: Evaluation A (Pre-1980)) is “active; positive”.

As to `Cc1cc(-c2cc(C)c(N)c(C)c2)cc(C)c1N`, the mutagenic call runs as follows: (Species/Cell Type: Human diploid fibroblasts, Assay Type: Unscheduled DNA synthesis (UDS) in vitro, DNA effects, Assay Code: UDH-*, Activation: With metabolic activation, Evaluation Type: Evaluation A (Pre-1980)) “inactive; negative”; (Species/Cell Type: Human, Assay Type: Sister-chromatid exchange (SCE) in vitro, Assay Code: SC1-, Evaluation Type: Evaluation B (Post-1980)) “inactive; negative”; (Species/Cell Type: Mammalian polychromatic erythrocytes, Assay Type: Micronucleus test, chromosome aberrations, Assay Code: MNT+, Evaluation Type: Evaluation A (Pre-1980)) “active; positive”; (Species/Cell Type: Mouse, Sex: Male, Assay Type: Sperm morphology, Assay Code: SPI-, Evaluation Type: Evaluation A (Pre-1980)) “inactive; negative”; under setting [3], “active; positive”; (Species/Cell Type: Nonhuman, Assay Type: Sister-chromatid exchange (SCE) in vivo, Assay Code: SC3T, Evaluation Type: Evaluation B (Post-1980)) “no conclusion”. For the same compound, the mutagenic call reads like this: under setting [5], “inactive; negative”; (Species/Cell Type: Tradescantia species, Assay Type: Gene mutation, Assay Code: TRM+D, Dose Response: With dose response, Evaluation Type: Evaluation A (Pre-1980)) “active; positive”.

`CCN(CCCl)CCCNc1ccnc2cc(Cl)ccc12`: under “Species/Cell Type: Neurospora crassa, Assay Type: Reverse gene mutation, Assay Code: NER+, Evaluation Type: Evaluation A (Pre-1980)”, the mutagenic call was “active; positive”.

Take `Cc1cc(N)c(N)cc1C`: the mutagenic call (Species/Cell Type: Mammalian polychromatic erythrocytes, Assay Type: Micronucleus test, chromosome aberrations, Assay Code: MNTT, Evaluation Type: Evaluation B (Post-1980)) is “no conclusion”.

For the compound `ClC(Cl)=C(c1ccc(Cl)cc1)c1ccccc1Cl`, under “Species/Cell Type: Nonhuman, Assay Type: Chromosome aberrations in vitro, Assay Code: CY&-, Evaluation Type: Evaluation A (Pre-1980)”, the mutagenic call is “inactive; negative”.

On to `O[C@H]1[C@@H](O)Cc2c(cc3ccc4cccc5ccc2c3c45)[C@@H]1O`, for which the mutagenic call (Species/Cell Type: Chinese hamster lung (V79) cells, Assay Type: Forward gene mutation at the HPRT or ouabain locus, Assay Code: V79-, Evaluation Type: Evaluation A (Pre-1980)) was “inactive; negative”.

Consider `Cc1ccc2c(c1[N+](=O)[O-])C(=O)c1cccc([N+](=O)[O-])c1C2=O`, for which the mutagenic call under setting [6] is “active; positive”.

Regarding `CC(=O)[O-].CC(=O)[O-].[Co+2]`, where the note is “Species/Cell Type: Syrian hamster embryo (SA7/SHE) cells, Assay Type: Cell transformation, viral enhanced, Assay Code: CT7+, Evaluation Type: Evaluation A (Pre-1980)”, the mutagenic call is “active; positive”.

As to `Nc1cc2c3ccccc3ccc2c2ccccc12`, the mutagenic call (Species/Cell Type: Salmonella typhimurium (one or more of the five standard strains: TA98, TA100, TA1535, TA1537, and TA1538), Assay Type: Histidine reverse gene mutation, Ames assay, Assay Code: SAL+*, Activation: With metabolic activation, Evaluation Type: Evaluation A (Pre-1980)) was “active; positive”.

With `Clc1cccc(Br)c1`, the mutagenic call under setting [5] is “inactive; negative”.

In the case of `C[S-].C[S-].N#[O+].N#[O+].N#[O+].N#[O+].[Fe].[Fe]`, the mutagenic call (Species/Cell Type: Nonhuman, Assay Type: Sister-chromatid exchange (SCE) in vitro, Assay Code: SC2T, Evaluation Type: Evaluation B (Post-1980)) is “no conclusion”.

With `COc1ccc(/C=C/Cl)cc1`, the mutagenic call reads like this: (Species/Cell Type: Human lymphocytes, Assay Type: Sister-chromatid exchange (SCE) in vitro, Assay Code: SCL+D, Dose Response: With dose response, Evaluation Type: Evaluation B (Post-1980)) “active; positive”; (Species/Cell Type: Human, Assay Type: Sister-chromatid exchange (SCE) in vitro, Assay Code: SC1+D, Dose Response: With dose response, Evaluation Type: Evaluation B (Post-1980)) “active; positive”.

Consider `CCOC(=O)CNC(=O)C=[N+]=[N-]`, for which, under setting [6], the mutagenic call was “active; positive”.

Regarding `CCOP(=O)(OCC)SCCSCC` (tested in a mixture with another compound), the mutagenic call by setting is: (Species/Cell Type: Bacillus subtilis (H17 vs M45), Assay Type: Rec-assay, spot test, DNA effects (bacterial DNA repair), Assay Code: REW+, Evaluation Type: Evaluation A (Pre-1980)) “active; positive”; under setting [4], “inactive; negative”; (Species/Cell Type: Escherichia coli WP2 UVRA, Assay Type: Tryptophan reverse gene mutation, Assay Code: WPU+D, Dose Response: With dose response, Evaluation Type: Evaluation A (Pre-1980)) “active; positive”; (Species/Cell Type: Escherichia coli polA (W3119 vs P3478), Assay Type: Rec-assay, DNA effects (bacterial DNA repair), Assay Code: RE1-, Evaluation Type: Evaluation A (Pre-1980)) “inactive; negative”; (Species/Cell Type: Nonhuman, Assay Type: Sister-chromatid exchange (SCE) in vitro, Assay Code: SC2+D*, Activation: With metabolic activation, Dose Response: With dose response, Evaluation Type: Evaluation B (Post-1980)) “active; positive”; (Species/Cell Type: Saccharomyces cerevisiae, Assay Type: Mitotic recombination or gene conversion, Assay Code: YEH+, Evaluation Type: Evaluation A (Pre-1980)) “active; positive”. Also, the mutagenic call under setting [6] is “active; positive”.

`c1ncncn1`: under “Species/Cell Type: Drosophila melanogaster, Assay Type: Sex-linked recessive lethal gene mutation, Assay Code: SRLT, Evaluation Type: Evaluation A (Pre-1980)”, the mutagenic call was “no conclusion”.

For `C[C@]12CCC3=C4CCC(=O)C=C4CC[C@H]3[C@@H]1CC[C@@]2(O)CC#N`, the mutagenic call (Species/Cell Type: Rabbit, Sex: Male, Assay Type: Sperm morphology, Assay Code: SPR+, Evaluation Type: Evaluation A (Pre-1980)) is “active; positive”.

With `OCC1COCO1` (stereo not drawn), the mutagenic call (Species/Cell Type: Mammalian polychromatic erythrocytes, Assay Type: Micronucleus test, chromosome aberrations, Assay Code: MNT-, Evaluation Type: Evaluation B (Post-1980)) is “inactive; negative”.

The record behind these values is PubChem BioAssay AID1259408 (Genetic Toxicology Data Bank (GENE-TOX), 2018).
